Test results from patent publication US20250235507A1, “INHALABLE POROUS MICROSPHERE LOADED WITH RECOMBINANT HUMAN RELAXIN-2 AND PREPARATION METHOD THEREFOR” (SHANDONG UNIVERSITY, priority 2023, published 2025).

How the values were obtained:
[1] = system: bleomycin-induced pulmonary fibrosis mouse model; assay: Lung histopathology: H&E, Masson trichrome and Sirius red staining; assay type: in vivo, C57BL/6J mice
Description: (§1) C57BL/6J mice (20±2 g, female) were purchased from Beijing Life River Experimental Animal Technology Co., Ltd, and were housed in specific pathogen-free animal facilities. For the induction of fibrosis, mice were treated with 100 μL of bleomycin (with concentration of 1 mg/mL) at a dose of 5 mg/Kg via tracheal intubation.
(§2) After two weeks of bleomycin administration, mice were divided into four groups. In the RLX@PMs group, porous microspheres loaded with RLX were administered at a single dose of 70 μg/mouse (including RLX) to each mouse via nebulization. Similarly, in the RLX-free group, the RLX-free solution was administered via nebulization at a dose of 5 μg/mouse daily for two weeks. In addition, a blank control group only nebulized with PBS (PBS group) was also set up. Pirfenidone was used as a positive control, and was administered via intragastric gavage to mice at a dose of 300 mg/kg daily for two weeks (PFD group). The weight of mice was recorded once every two days.
In addition to in vivo imaging examination, we also used hematoxylin and eosin (H&E) staining, Masson's trichrome staining and Sirius red staining to detect the histological changes and collagen deposition in the lungs according to the manufacturer's instructions. After the mice were euthanized, the whole lung tissues were collected and fixed in 4% paraformaldehyde overnight. Subsequently, the tissues were subjected to gradient dehydration according to the standard procedure and embedded with paraffin. The lung tissues of mice were embedded in paraffin and cut into 3 μm sections, followed by H&E staining. […] The stained sections were imaged using a VS120 virtual slide microscope, and the severity of interstitial fibrosis was evaluated at 100× magnification by measuring the percentage of blue stained area. […] After staining, the stained sections were scanned by a polarization microscope, and the degree of collagen deposition in the lung was evaluated based on the image. All collagen density data were quantified by ImageJ software.

[2] = system: bleomycin-induced pulmonary fibrosis mouse model; assay: Anti-fibrosis effect in bleomycin-induced pulmonary fibrosis mouse model (micro-CT, weight, lung wet weight); assay type: in vivo
Description: as §1, §2
For further examination, after anesthesia, whole-lung imaging was performed using a micro-computed tomography (micro-CT) imaging system for small animals (scanning parameters: scan resolution, 18 μm; voltage, 70 kV; current, 100 μA). After treatment, all mice were euthanized and tissues were collected for further analysis, and lung coefficient was calculated by the wet weight of lungs.

[3] = mice
Description: Real-time fluorescence images were obtained by the small animal in vivo imaging system at regular intervals. The same treatment was carried out using the same dose of rhodamine B-free as the control group.

## Cc1ccc(=O)n(-c2ccccc2)c1 [Pirfenidone]
[1]; fibrosis around bronchi, versus PBS group
  collagen accumulation / deposition (Masson trichrome staining): lower than that of the PBS group
[1]; increased by bleomycin exposure
  airway remodeling, angiogenesis and parenchymal inflammation (lung histopathology): attenuated these effects
[1]; polarization microscope
  therapeutic effect on collagen deposition (Sirius red staining): slight therapeutic effect
[2]; after 4 weeks of treatment
  lung structure / fibrosis by micro-CT: a certain degree of fibrosis
[2]; bleomycin mice, PFD 300 mg/kg daily, intragastric
  mortality: died within three weeks
[2]; weight recorded every two days
  weight change of mice: progressive weight loss

## CCN(CC)c1ccc2c(-c3ccccc3C(=O)O)c3ccc(=[N+](CC)CC)cc-3oc2c1 [rhodamine B-free, rhodamine B]
[3]; nebulized inhalation, in vivo imaging
  site of deposition (lung versus gastrointestinal tract), fluorescence signals: higher
[3]; single inhalation
  time until fluorescence signals disappeared completely: ≤ 2 weeks
